Source: US6028068A, “Substituted 6H-1,3,4-thiadiazine-2-amines, the use thereof as anaesthetising, cardiovascular and hypometabolic agents, and a pharmaceutical composition containing them” (The Procter & Gamble Company, priority 1999, dated 2000)
Structures can show the parent of a compound that is named as a salt.

Key:
[1] = Rectal (body) temperature in mice; type: in vivo, mice (BALB line); conditions: for Body temperature (T): Table 2, 390 mg/kg (1.0 mM/kg; 1/2 LD16)
Description: (§1) In all cases trials were carried out on mice of the BALB line of 3-4 month age. […] In the case of water-soluble compounds aqueous solutions of the test compounds were injected intraperitoneally (i.p.), while water-insoluble compounds were introduced orally (p.o.).
(§2) Rectal temperature changes (absolute magnitudes in ° C.) were measured using a medicinal electrothermometer TREM-1 (Table 1). […] The data on oxygen consumption are given an percents relative to the starting content of oxygen taken as 100 (Table 2).

[2] = Rectal temperature in rats; type: in vivo
[3] = Lethal dose determination (LD16, LD50, LD84) in mice; conditions: mouse, in vivo, ip
[4] = Observed behavioural effects in mice after introduction; type: in vivo, mice (BALB line); conditions: intraperitoneally
Description: In all cases trials were carried out on mice of the BALB line of 3-4 month age. Non-toxic doses of compounds under test, varying from 60 to 400 mg/kg, were used in all experiments. In the case of water-soluble compounds aqueous solutions of the test compounds were injected intraperitoneally (i.p.), while water-insoluble compounds were introduced orally (p.o.).
(§3) Compound 1 was dissolved in a twin-water 1:9 (concentration of saturated solution was 40 mg/ml) and introduced intraperitoneally at the rate of 0.2 ml per 20 g of mouse weight.

[5] = Oxygen consumption in mice (closed testing unit, gas analyzer MN 5130); type: in vivo, mice (BALB line); conditions: for Lowering of oxygen consumption: relative to initial value; for Consumption of oxygen (O2): relative to starting content taken as 100, 390 mg/kg (1.0 mM/kg; 1/2 LD16), mice
Description: as §1, §2

[6] = physchem; type: physicochemical; conditions: twin-water 1:9
Description: as §3

CCOC(=O)C(=NOC)C1=NN=C(N2CCSCC2)SC1 [Compound 4, Ethyl-1-methoxyimino-1-(2-thiomorpholino-6H-1,3,4-thiadiazine-5-yl)acetate, mesylate]
Body temperature ([1]; 166.0 mg/kg (0.39 mM/kg) i.p., 0 minutes): 38.1 °C
Body temperature ([1]; 166.0 mg/kg (0.39 mM/kg) i.p., 30 minutes): 33.9 °C
Body temperature ([1]; 166.0 mg/kg (0.39 mM/kg) i.p., 60 minutes): 34.9 °C
Body temperature ([1]; 166.0 mg/kg (0.39 mM/kg) i.p., 120 minutes): 35.7 °C
Body temperature ([1]; 166.0 mg/kg (0.39 mM/kg) i.p., 180 minutes): 37.4 °C

CCOC(=O)C(=NOC)C1=NN=C(N2CCOCC2)SC1 [Compound 1, Ethyl-1-methoxyimino-1-(2-morpholino-6H-1,3,4-thiadiazine-5-yl)acetate, hydrobromide]
Fall of rectal temperature ([2]; 10 minutes after introduction): 3-4 °C
Fall of rectal temperature ([2]; after 30 minutes): about 5 °C
Time to maximum temperature drop [1]: 90 to 120 min
Body temperature ([1]; 391.7 mg/kg (1.0 mM/kg) i.p., 0 minutes): 37.9 °C
Body temperature ([1]; 391.7 mg/kg (1.0 mM/kg) i.p., 30 minutes): 29.6 °C
Body temperature ([1]; 391.7 mg/kg (1.0 mM/kg) i.p., 60 minutes): 26.5 °C
Body temperature ([1]; 391.7 mg/kg (1.0 mM/kg) i.p., 90 minutes): 24.8 °C
Body temperature ([1]; 391.7 mg/kg (1.0 mM/kg) i.p., 120 minutes): 24.6 °C
Body temperature ([1]; 391.7 mg/kg (1.0 mM/kg) i.p., 180 minutes): 32.6 °C
Body temperature ([1]; 391.7 mg/kg (1.0 mM/kg) i.p., 240 minutes): 34.6 °C
Body temperature ([1]; 391.7 mg/kg (1.0 mM/kg) i.p., 300 minutes): 35.9 °C
Fall of rectal temperature ([1]; 10 minutes after introduction): 3-4 °C
Body temperature (T) ([1]; 5 minutes): 33.5 °C
Body temperature (T) ([1]; 15 minutes): 31.2 °C
Fall of rectal temperature ([1]; after 30 minutes): 7-8 °C
Temperature difference ([1]; after five hours): 2 °C
Drop of body temperature ([1]; introduced intraperitoneally): drop of body temperature
Maximum temperature drop ([1]; reached in 90-120 minutes): 12-13 °C
LD16 [3]: 788.4 mg/kg
LD50 [3]: 830 mg/kg
LD84 [3]: 881.5 mg/kg
Effects of introduction [4]: akiriesia, suppression of reflexes to external disturbance, lateral state of mice
Restoration of oxygen consumption ([5]; Table 2, mice): Full restoration of oxygen consumption was not observed
Lowering of oxygen consumption ([5]; at the fourth hour): 2 fold
Lowering of oxygen consumption ([5]; during the first hour): 7-10 fold
Lowering of oxygen consumption ([5]; for the next 2 hours): 3-4 fold
Consumption of oxygen (O2) ([5]; 0 minutes): 100 percents
Consumption of oxygen (O2) ([5]; 5 minutes): 8.1 percents
Consumption of oxygen (O2) ([5]; 15 minutes): 0.1 percents
Consumption of oxygen (O2) ([5]; 30 minutes): 0.2 percents
Consumption of oxygen (O2) ([5]; 60 minutes): 12.0 percents
Consumption of oxygen (O2) ([5]; 90 minutes): 27.0 percents
Consumption of oxygen (O2) ([5]; 120 minutes): 26.0 percents
Consumption of oxygen (O2) ([5]; 180 minutes): 28.0 percents
Consumption of oxygen (O2) ([5]; 240 minutes): 59.0 percents
solubility [6]: 40 mg/mL

CCOC(=O)C(=NOC)C1=NN=C(N2CCOCC2)SC1 [Compound 2, Ethyl-1-methoxyimino-1-(2-morpholino-6H-1,3,4-thiadiazine-5-yl)acetate, mesylate]
Body temperature ([1]; 410.0 mg/kg (1.0 mM/kg) i.p., 0 minutes): 38.5 °C
Body temperature ([1]; 410.0 mg/kg (1.0 mM/kg) i.p., 30 minutes): 31.9 °C
Body temperature ([1]; 410.0 mg/kg (1.0 mM/kg) i.p., 60 minutes): 32.8 °C
Body temperature ([1]; 410.0 mg/kg (1.0 mM/kg) i.p., 90 minutes): 35.3 °C
Body temperature ([1]; 410.0 mg/kg (1.0 mM/kg) i.p., 120 minutes): 36.4 °C
Body temperature ([1]; 410.0 mg/kg (1.0 mM/kg) i.p., 180 minutes): 37.6 °C
Body temperature ([1]; 410.0 mg/kg (1.0 mM/kg) i.p., 240 minutes): 38.8 °C
